In patent publication US7300946B2, “N-(substituted arylmethyl)-4-(disubstituted methyl) piperidines and pyridines” (Bayer CropScience AG, priority 2002, dated 2007):

Tested on: tobacco budworm (Heliothis virescens [Fabricius])
Assay: surface-treated diet test against the tobacco budworm
Format: in vivo
Details: tobacco budworm second instar larvae, 0.25 millimoles of candidate insecticide on the surface of the diet, five-day exposure; for Percent Mortality: compared to total number of insects infested; for Percent Growth Inhibition: inhibition of insect weight relative to untreated controls
Outline: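 Wheat germ artificial diet surface-treated with 40 µL of 50 mM DMSO stock diluted 1:7 in 1:1 water/acetone (0.25 millimolar on diet), or sub-multiples for rate tests. One second-instar larva per well, 25° C, 60% RH, 5 days; percent weight inhibition vs DMSO controls and percent mortality.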

Row | SMILES | Percent Mortality (surface-treated diet) | Percent Growth Inhibition (surface-treated diet) | Percent Mortality | Percent Growth Inhibition
1 | CCn1nnc(-c2ccc(CN3CCC(C(OC(=O)Nc4ccc(Cl)cc4)c4cc(Cl)cc(Cl)c4)CC3)cc2)n1 (stereo not drawn) [Compound 577] | 100% | 100% |  | 
2 | CC(C)OC(=O)Nc1ccc(C[N+]2([O-])CCC(=C(c3ccc(Cl)cc3)c3ccc(Cl)cc3)CC2)cc1 (stereo not drawn) [Compound 831] |  |  | 100% | 100%
3 | CC(C)OC(=O)Nc1ccc(C[N+]2([O-])CCC(C(OC(=O)Nc3cc(F)cc(F)c3)c3ccc(C(F)(F)F)cc3)CC2)cc1 (stereo not drawn) [Compound 746] |  |  | 100% | 100%
4 | Cn1nnc(-c2ccc(CN3CCC(C(OC(=O)Nc4ccc(F)cc4)c4ccc(OC(F)(F)F)cc4)CC3)cc2)n1 (stereo not drawn) [Compound 275] | 100% | 100% |  | 
5 | O=C(Nc1ccc(F)cc1F)OC(c1ccc(C(F)(F)F)cc1)C1CCN(Cc2ccc(Oc3ccccn3)cc2)CC1 (stereo not drawn) [Compound 679] | 100% | 100% |  | 
6 | CCn1nnc(-c2ccc(CN3CCC(C(OC(=O)Nc4ccc(F)c(F)c4)c4ccc(Oc5ccccc5)cc4)CC3)cc2)n1 (stereo not drawn) [Compound 618] | 100% | 100% |  | 
7 | O=C(Nc1ccc(Cl)c(C(F)(F)F)c1)OC(c1ccc(C(F)(F)F)cc1)C1CCN(Cc2ccc(Oc3ccccn3)cc2)CC1 (stereo not drawn) [Compound 247] | 100% | 100% |  | 
8 | O=C(Nc1ccc(F)cc1)OC(c1ccc(OC(F)(F)F)cc1)C1CCN(Cc2ccc(Oc3ccccn3)cc2)CC1 (stereo not drawn) [Compound 236] | 100% | 100% |  | 
9 | FC(F)(F)c1ccc(C(=C2CCN(Cc3ccc(OCc4nccs4)cc3)CC2)c2ccc(C(F)(F)F)cc2)cc1 [Compound 61] | 100% | 100% |  | 
10 | O=C(Nc1cc(F)cc(F)c1)OC(c1ccc(C(F)(F)F)cc1)C1CC[N+]([O-])(Cc2ccc(-c3ccccc3)cc2)CC1 (stereo not drawn) [Compound 748] |  |  | 100% | 100%
11 | Cn1nnc(-c2ccc(CN3CCC(C(NCc4ccc(I)cc4)c4ccc(OC(F)(F)F)cc4)CC3)cc2)n1 (stereo not drawn) [Compound 316] | 50% | 100% |  | 
12 | CCn1nnc(-c2ccc(CN3CCC(C(OC(=O)Nc4ccc(Cl)c(Cl)c4)c4cccc(F)c4)CC3)cc2)n1 (stereo not drawn) [Compound 583] | 100% | 100% |  | 
13 | CNC(=O)Oc1ccc(CN2CCC(=C(c3ccc(Cl)cc3)c3ccc(Cl)cc3)CC2)cc1 [Compound 789] |  |  | 100% | 100%
14 | O=C(Nc1ccc(SC(F)(F)F)cc1)OC(c1ccc(C(F)(F)F)cc1)C1CCN(Cc2ccc(Oc3ccccn3)cc2)CC1 (stereo not drawn) [Compound 703] |  |  | 100% | 100%
15 | [O-][N+]1(Cc2ccc(Oc3ncccn3)cc2)CCC(=C(c2ccc(Cl)cc2)c2ccc(C(F)(F)F)cc2)CC1 (stereo not drawn) [Compound 847] |  |  | 100% | 100%
16 | N#Cc1ccc(Oc2ccc(CN3CCC(C(OC(=O)Nc4ccc(Cl)cc4)c4ccc(C(F)(F)F)cc4)CC3)cc2)nc1 (stereo not drawn) [Compound 671] | 100% | 100% |  | 
17 | Cn1nnc(-c2ccc(CN3CCC(C(NC(=O)Oc4ccc(Cl)cc4)c4ccc(OC(F)(F)F)cc4)CC3)cc2)n1 (stereo not drawn) [Compound 349] | 100% | 100% |  | 
18 | CCn1nnc(-c2ccc(CN3CCC(C(OC(=O)Nc4ccc(Oc5ccccc5)cc4)c4ccc(C(F)(F)F)cc4)CC3)cc2)n1 (stereo not drawn) [Compound 298] | 100% | 100% |  | 
19 | FC(F)(F)c1ccc(NC(=S)OC(c2ccc(C(F)(F)F)cc2)C2CCN(Cc3ccc(Oc4ccccn4)cc3)CC2)cc1 (stereo not drawn) [Compound 693] | 100% | 100% |  | 
20 | CCON=Cc1ccc(CN2CCC(C(OC(=O)Nc3cc(Cl)c(Cl)cc3Cl)c3ccc(C(F)(F)F)cc3)CC2)cc1 (stereo not drawn) [Compound 192] | 67% | 98% |  | 
21 | CCON=Cc1ccc(CN2CCC(C(OC(=O)Nc3cccc(C(F)(F)F)c3)c3ccc(C(F)(F)F)cc3)CC2)cc1 (stereo not drawn) [Compound 204] | 100% | 100% |  | 
22 | CCON=Cc1ccc(CN2CCC(C(OC(=O)N(C)c3ccccc3)c3ccc(C(F)(F)F)cc3)CC2)cc1 (stereo not drawn) [Compound 536] | 100% | 100% |  | 
23 | FC(F)(F)c1ccc(C(=C2CCN(Cc3ccccc3)CC2)c2ccccc2)cc1 [Compound 30] | 100% | 54% |  | 
24 | CC(C)OC(=O)c1ccc(C[N+]2([O-])CCC(=C(c3ccc(C(F)(F)F)cc3)c3ccc(C(F)(F)F)cc3)CC2)cc1 (stereo not drawn) [Compound 100] | 100% | 100% |  | 

Row | SMILES | Percent Mortality (surface-treated diet) | Percent Growth Inhibition (surface-treated diet) | Percent Mortality | Percent Growth Inhibition
25 | O=C(Nc1ccc(C(F)(F)F)cc1)OC(c1ccc(C(F)(F)F)cc1)C1CC[N+]([O-])(Cc2ccc(Oc3ccccn3)cc2)CC1 (stereo not drawn) [Compound 398] | 100% | 100% |  | 
26 | COc1ccc(CNC(c2ccc(OC(F)(F)F)cc2)C2CCN(Cc3ccc(-c4nnn(C)n4)cc3)CC2)cc1 (stereo not drawn) [Compound 318] | 100% | 100% |  | 
27 | O=C(Nc1cc(F)cc(F)c1)OC(c1ccc(C(F)(F)F)cc1)C1CCN(Cc2ccc(Oc3ccc(Cl)nn3)cc2)CC1 (stereo not drawn) [Compound 738] |  |  | 100% | 100%
28 | O=C(Nc1ccc(-c2ccccc2)cc1)OC(c1ccc(C(F)(F)F)cc1)C1CCN(Cc2ccc(Oc3ccccn3)cc2)CC1 (stereo not drawn) [Compound 250] | 100% | 100% |  | 
29 | O=C(Nc1cc(F)cc(F)c1)OC(c1ccc(C(F)(F)F)cc1)C1CCN(Cc2ccc(Oc3ccccn3)cc2)CC1 (stereo not drawn) [Compound 240] | 100% | 100% |  | 
30 | Cn1nnc(-c2ccc(COC(c3ccc(OC(F)(F)F)cc3)C3CCN(Cc4ccc(-c5nnn(C)n5)cc4)CC3)cc2)n1 (stereo not drawn) [Compound 306] | 33% | 59% |  | 
31 | CCn1nnc(-c2ccc(CN3CCC(C(OC(=O)Nc4ccc(F)c(F)c4)c4ccccc4Cl)CC3)cc2)n1 (stereo not drawn) [Compound 569] | 100% | 100% |  | 
32 | CC(=O)c1ccc(NC(=O)OC(c2ccc(C(F)(F)F)cc2)C2CCN(Cc3ccc(Oc4ccccn4)cc3)CC2)cc1 (stereo not drawn) [Compound 705] |  |  | 17% | 100%
33 | Clc1ccc(C(=C2CCN(Cc3ccc(Oc4ccccn4)cc3)CC2)c2ccc(Cl)cc2)cc1 [Compound 809] |  |  | 100% | 100%
34 | O=C(Nc1cc(F)cc(F)c1)OC(c1ccc(C(F)(F)F)cc1)C1CC[N+]([O-])(Cc2ccc(Oc3cc(C(F)(F)F)ccn3)cc2)CC1 (stereo not drawn) [Compound 760] |  |  | 100% | 100%
35 | O=C(Nc1cccc(F)c1)OC(c1ccc(Cl)cc1Cl)C1CCN(Cc2ccc(Oc3ncccn3)cc2)CC1 (stereo not drawn) [Compound 719] |  |  | 100% | 100%
36 | CC=CCOC(=O)Nc1ccc(CN2CCC(=C(c3ccc(C(F)(F)F)cc3)c3ccc(C(F)(F)F)cc3)CC2)cc1 [Compound 799] |  |  | 0% | 83%
37 | CC(C)OC(=O)Nc1ccc(CN2CCC(C(OC(=O)Nc3cccc(F)c3)c3ccc(OC(F)(F)F)cc3)CC2)cc1 (stereo not drawn) [Compound 514] | 100% | 100% |  | 
38 | CCOC(=O)CNC(=O)OC(c1ccc(C(F)(F)F)cc1)C1CCN(Cc2ccc(Oc3ccccn3)cc2)CC1 (stereo not drawn) [Compound 783] |  |  | 0% | 70%
39 | O=C(Nc1cc(F)cc(F)c1)OC(c1ccc(F)cc1)C1CCN(Cc2ccc(Oc3ncccn3)cc2)CC1 (stereo not drawn) [Compound 717] |  |  | 100% | 100%
40 | O=C(Nc1cc(F)cc(F)c1)OC(c1ccc(C(F)(F)F)cc1)C1CC[N+]([O-])(Cc2ccc(Oc3ccc(Cl)cn3)cc2)CC1 (stereo not drawn) [Compound 756] |  |  | 100% | 100%
41 | O=C(Nc1ccc(Br)cc1)OC(c1ccc(C(F)(F)F)cc1)C1CCN(Cc2ccc(Oc3ccccn3)cc2)CC1 (stereo not drawn) [Compound 673] | 100% | 100% |  | 
42 | Cn1nnc(-c2ccc(CN3CCC(C(NC(=O)c4cccc(F)c4)c4ccc(OC(F)(F)F)cc4)CC3)cc2)n1 (stereo not drawn) [Compound 327] | 0% | 99% |  | 
43 | COC(=O)Nc1ccc(CN2CCC(C(OC(=O)Nc3cc(F)cc(F)c3)c3ccc(C(F)(F)F)cc3)CC2)cc1 (stereo not drawn) [Compound 498] | 100% | 100% |  | 
44 | O=C(Nc1cc(F)cc(F)c1)OC(c1ccc(C(F)(F)F)cc1)C1CCN(Cc2ccc(NC(=O)c3ccccc3Cl)cc2)CC1 (stereo not drawn) [Compound 550] | 100% | 100% |  | 
45 | O=C(Nc1ccc(CN2CCC(=C(c3ccc(C(F)(F)F)cc3)c3ccc(C(F)(F)F)cc3)CC2)cc1)C(F)(F)F [Compound 53] | 0% | 100% |  | 
46 | CC(C)(C)NC(=O)OC(c1ccc(C(F)(F)F)cc1)C1CCN(Cc2ccc(Oc3ccccn3)cc2)CC1 (stereo not drawn) [Compound 779] |  |  | 100% | 100%
47 | FC(F)(F)c1ccc(C(=C2CCN(Cc3ccc(Nc4ccccn4)cc3)CC2)c2ccc(C(F)(F)F)cc2)cc1 [Compound 811] |  |  | 100% | 100%
48 | Cn1nnc(-c2ccc(CN3CCC(C(NC(=O)Nc4ccc(F)cc4)c4ccc(OC(F)(F)F)cc4)CC3)cc2)n1 (stereo not drawn) [Compound 340] | 83% | 100% |  | 
